Data taken from patent publication US20160194299A1 (priority 2013, published 2016).
Converted amounts (≈) assume the structure as drawn. Like-named read-outs stand apart in the source and are kept apart here.

How the values were obtained:
in vitro = details: African green monkey
Mtb [1] = experiment: microbe, parasite or virus in culture; format: cell-based, Mycobacterium tuberculosis; details: Mycobacterium tuberculosis, read-out: MIC (I)
Mtb [2] = experiment: microbe, parasite or virus in culture; format: cell-based, Mycobacterium tuberculosis; details: Mycobacterium tuberculosis, read-out: MIC (III)

| Compound | CC50 (in vitro) | MIC (Mtb [1]) | MIC (Mtb [2]) |
| --- | --- | --- | --- |
| CCOC(=O)NC(=O)c1ccsc1NC(=O)c1ccnnc1 [Compound 86] | > 50 µg/mL | 1 to 3 µg/mL (≈ 3.12 to 9.37 µM) | 5 to 25 µg/mL (≈ 15.6 to 78 µM) |
| CCOC(=O)NC(=O)c1ccsc1NC(=O)c1cc2ccccc2cn1 [Compound 116] | > 50 µg/mL | > 3 µg/mL | > 25 µg/mL |
| CCOC(=O)NC(=O)c1ccsc1NC(=O)c1cc2cccnc2s1 [Compound 332] | > 50 µg/mL | < 1 µg/mL | > 25 µg/mL |
| CC(CN1CCOCC1)OC(=O)NC(=O)c1ccsc1NC(=O)c1nc2ccccc2s1 (stereo not drawn) [Compound 34] | < 25 µg/mL | > 3 µg/mL | 5 to 25 µg/mL (≈ 10.5 to 52.7 µM) |
| C=CCOC(=O)NC(=O)c1ccsc1NC(=O)c1cnc2ccnn2c1 [Compound 297] | < 25 µg/mL | < 1 µg/mL | < 5 µg/mL |
| CCOC(=O)NC(=O)c1cc(F)sc1NC(=O)c1nc2ncccc2s1 [Compound 389] | < 25 µg/mL | 1 to 3 µg/mL (≈ 2.54 to 7.61 µM) | > 25 µg/mL |
| CCOC(=O)NC(=O)c1ccsc1NC(=O)c1nc2c(s1)CCCC2 [Compound 217] | > 50 µg/mL | < 1 µg/mL | > 25 µg/mL |
| CCOC(=O)NC(=O)c1ccsc1NC(=O)c1nc2cnc(Cl)cc2s1 [Compound 267] | > 50 µg/mL | < 1 µg/mL | > 25 µg/mL |
| CC(C)OC(=O)NC(=O)c1cc(F)sc1NC(=O)c1nc2cccnc2s1 [Compound 344] | 25 to 50 µg/mL (≈ 61.2 to 122 µM) | < 1 µg/mL | > 25 µg/mL |
| CCOC(=O)NC(=O)c1ccsc1NC(=O)c1nsc2ccccc12 [Compound 378] | 25 to 50 µg/mL (≈ 66.6 to 133 µM) | > 3 µg/mL | > 25 µg/mL |
| CCOC(=O)NC(=O)c1ccsc1NC(=O)c1ccc(=O)[nH]n1 [Compound 91] | > 50 µg/mL | 1 to 3 µg/mL (≈ 2.97 to 8.92 µM) | < 5 µg/mL |
| CC(C)OC(=O)NC(=O)c1ccsc1NC(=O)c1ccc2nccnc2c1 [Compound 399] | < 25 µg/mL | < 1 µg/mL | > 25 µg/mL |
| O=C(NC(=O)c1ccsc1NC(=O)c1nc2ccccc2s1)OC1CCC1 [Compound 321] | > 50 µg/mL | < 1 µg/mL | > 25 µg/mL |
| CCOC(=O)NC(=O)c1ccsc1NC(=O)c1cccc2ncccc12 [Compound 139] | > 50 µg/mL | > 3 µg/mL | > 25 µg/mL |
| CCOC(=O)NC(=O)c1ccsc1NC(=O)c1nc2cnc(N3CCOCC3)cc2s1 [Compound 311] | > 50 µg/mL | < 1 µg/mL | > 25 µg/mL |
| CCOC(=O)NC(=O)c1ccsc1NC(=O)c1nc2cccnc2s1 [Compound 83] | > 50 µg/mL | < 1 µg/mL | < 5 µg/mL |

| Compound | CC50 (in vitro) | MIC (Mtb [1]) | MIC (Mtb [2]) |
| --- | --- | --- | --- |
| CCOC(=O)NC(=O)c1ccsc1NC(=O)c1cn2cc(C)ccc2n1 [Compound 208] | > 50 µg/mL | > 3 µg/mL | > 25 µg/mL |
| O=C(NC(=O)c1ccsc1NC(=O)c1nc2cnccc2s1)OCc1ccccc1F [Compound 287] | 25 to 50 µg/mL (≈ 54.8 to 110 µM) | 1 to 3 µg/mL (≈ 2.19 to 6.57 µM) | 5 to 25 µg/mL (≈ 11 to 54.8 µM) |
| CCC(CC)OC(=O)NC(=O)c1ccsc1NC(=O)c1nc2cnccc2s1 [Compound 328] | < 25 µg/mL | < 1 µg/mL | > 25 µg/mL |
| O=C(Nc1sccc1C(=O)OCCN1CCOCC1)c1nc2ccccc2s1 [Compound 291] | > 50 µg/mL | > 3 µg/mL | > 25 µg/mL |
| CC(C)OC(=O)NC(=O)c1ccsc1NC(=O)c1c(F)c(F)c(F)c(F)c1F [Compound 296] | < 25 µg/mL | > 3 µg/mL | 5 to 25 µg/mL (≈ 11.8 to 59.2 µM) |
| CCOC(=O)NC(=O)c1ccsc1NC(=O)c1cnc2ccccc2c1 [Compound 264] | < 25 µg/mL | < 1 µg/mL | 5 to 25 µg/mL (≈ 13.5 to 67.7 µM) |
| CCOC(=O)NC(=O)c1ccsc1NC(=O)c1ccc2cccnc2c1 [Compound 63] | > 50 µg/mL | < 1 µg/mL | 5 to 25 µg/mL (≈ 13.5 to 67.7 µM) |
| CCOC(=O)NC(=O)c1ccsc1NC(=O)c1sc2ccccc2c1Cl [Compound 88] | > 50 µg/mL | < 1 µg/mL | 5 to 25 µg/mL (≈ 12.2 to 61.1 µM) |
| CCOC(=O)NC(=O)c1cc(F)sc1NC(=O)c1ccn2nccc2c1 [Compound 343] | < 25 µg/mL | < 1 µg/mL | > 25 µg/mL |
| CCOC(=O)NC(=O)c1ccsc1NC(=O)c1nc2ncccn2n1 [Compound 125] | > 50 µg/mL | > 3 µg/mL | 5 to 25 µg/mL (≈ 13.9 to 69.4 µM) |
| CCOC(=O)NC(=O)c1ccsc1NC(=O)c1cnc2c(-c3ccc(OC)cc3)cnn2c1 [Compound 299] | < 25 µg/mL | < 1 µg/mL | > 25 µg/mL |
| COC(=O)NC(=O)c1ccsc1NC(=O)c1cn2ccccc2n1 [Compound 347] | 25 to 50 µg/mL (≈ 72.6 to 145 µM) | > 3 µg/mL | > 25 µg/mL |
| CCC(OC(=O)NC(=O)c1ccsc1NC(=O)c1cnc2ccnn2c1)c1ccccc1 (stereo not drawn) [Compound 306] | < 25 µg/mL | > 3 µg/mL | > 25 µg/mL |
| CCOC(=O)NC(=O)c1ccsc1NC(=O)c1sc(-c2cccnc2)nc1C [Compound 136] | > 50 µg/mL | > 3 µg/mL | > 25 µg/mL |
| CCOC(=O)NC(=O)c1cc(C)sc1NC(=O)c1ccc2scnc2c1 [Compound 62] | 25 to 50 µg/mL (≈ 64.2 to 128 µM) | 1 to 3 µg/mL (≈ 2.57 to 7.7 µM) | > 25 µg/mL |
